Patent publication US5283236A, “Systemic delivery of polypeptides through the eye” (Orbon Corporation, priority 1992, dated 1994)

What was measured:
[1] = Insulin absorption from eye drops with absorption enhancers (blood insulin); assay type: in vivo, New Zealand white female rabbits; conditions: eye drops: 1% insulin plus 1% absorption enhancer (Control: no enhancer)
normal rabbits [2] = experiment: Blood glucose after insulin eye drops with absorption enhancers; assay type: in vivo, New Zealand white female rabbits; conditions: eye drops: 1% insulin plus 1% absorption enhancer (Control: no enhancer)
[3] = Penetration of insulin into eyeballs with absorption enhancers; assay type: in vivo, rabbits; conditions: 1% insulin plus 1% enhancer (Control: 1% insulin only)
[4] = rabbit, in vivo
Text: The concentrations of peptides in the blood were expressed in ng/ml.

[5] = Enkephalin-equivalent remaining in eye tissues at the end of 12 hr experiment; assay type: in vivo, New Zealand white female rabbits
[6] = Blood enkephalin-equivalent concentration after ocular or i.v. enkephalin; assay type: in vivo, New Zealand white female rabbits; conditions: enkephalin 50 ug i.v.
normal rabbits [7] = experiment: Blood glucose after ocular or i.v. glucagon in normal rabbits; assay type: in vivo, New Zealand white female rabbits; conditions: for blood glucose raised to: in 30 min

In the case of C[N+](C)(C)CCCCCCCCCC[N+](C)(C)C [Decamethonium, decamethonium bromide], the “Insulin peak Concentration” value [1] is reported as 10.8 ± 1.8 ng/mL, the “% Change in Blood Glucose Concentration” value (normal rabbits [2]) is reported as 8% and the “Blood Glucose Concentration Before” value (normal rabbits [2]) is reported as 90 ± 3 mg %.

With C[C@H](CCC(=O)NCC(=O)O)[C@H]1CC[C@H]2[C@@H]3[C@H](O)C[C@@H]4C[C@H](O)CC[C@]4(C)[C@H]3C[C@H](O)[C@]12C [Glycocholate, sodium glycocholate] the “Absolute amount of insulin in the eyeball” value [3] was 200 ng.

For CC(C)C[C@H](NC(=O)CNC(=O)[C@H](Cc1ccc(O)cc1)NC(=O)[C@H](CO)NC(=O)[C@H](Cc1c[nH]c2ccccc12)NC(=O)[C@H](Cc1cnc[nH]1)NC(=O)[C@@H]1CCC(=O)N1)C(=O)N[C@@H](CCCNC(=N)N)C(=O)N1CCC[C@H]1C(=O)NCC(N)=O [LHRH, luteinizing hormone-releasing hormone], the “LHRH eye drop concentration sufficient to reach therapeutic effective blood concentration” value [4] was at least 0.005% and the “Tx of blood LHRH” value ([4]; iv) was “approximately 15 min”.

For NC(=O)[C@@H]1CCCN1C(=O)[C@H](Cc1cnc[nH]1)NC(=O)[C@@H]1CCC(=O)N1 [TRH, Thyrotrophin-releasing hormone], the “TRH eye drop concentration giving a therapeutic blood concentration” value [4] was at least 0.0025% and the “Tx of blood TRH” value ([4]; iv) was “approximately 10 min”.

For CC(C)C[C@H](NC(=O)[C@H](Cc1ccccc1)NC(=O)CNC(=O)CNC(=O)[C@@H](N)Cc1ccc(O)cc1)C(=O)O [enkephalin, Leucine-enkephalin (5-L-leucine)], the “Residual amount of enkephalin remaining in tissues, % of instilled, Total” value ([5]; 1% enkephalin) was 0.1713%, the “Residual amount of enkephalin remaining in tissues, Amount, Total” value ([5]; 1% enkephalin) was 428.28 ng and the “Residual amount of enkephalin remaining in tissues, % of instilled, Total” value ([5]; 5% enkephalin) was 0.1136%. For the same molecule, the “Residual amount of enkephalin remaining in tissues, % of instilled, Total” value ([5]; […] enkephalin) was 0.3019%, the “Tx of decline of blood concentration” value [6] was “less than 30 min” and the lowest blood concentration ([6]; in 5 hrs) was 22 ng/mL.

With Glucagon the blood glucose peak (normal rabbits [7]; 50 ug glucagon i.v., peaked at 30 min) was 235 mg %, the “blood glucose raised to” value (normal rabbits [7]; 25 ul of 0.2% glucagon instilled) was 204 mg % and the “blood glucose came down to” value (normal rabbits [7]; 25 ul of 0.2% glucagon instilled, in 2 hrs) was 116 mg %. The “blood glucose raised to” value (normal rabbits [7]; 25 ul of 1% glucagon instilled) was 248 mg % and the “blood glucose declined to” value (normal rabbits [7]; 25 ul of 5% glucagon instilled, end of 6 hr) was 160 mg %.

With polyoxyethylene-9-lauryl ether [BL-9] the “% Change in Blood Glucose Concentration” value (normal rabbits [2]) was 42%, the “Blood Glucose Concentration After” value (normal rabbits [2]) was 56 mg % and the “Blood Glucose Concentration Before” value (normal rabbits [2]) was 97 mg %.
